pIC50: −log10 of the molar value. Where two headings read alike, the source gives them in different places.
Assays:
[1] = test system: MS751 cells; experiment: MTT cell proliferation assay, MS751; assay type: cell-based, human; conditions: read-out: MTT Assay IC50, MS751
Experimental: (§1) The MTT cell proliferation assay was used to study the cytotoxic properties of the compounds. The assay was performed according to the method described by Roche Molecular Biochemicals, with minor modifications. The assay is based on the cleavage of the tetrazolium salt, MTT, in the presence of an electron-coupling reagent. The water-insoluble formazan salt produced must be solubilized in an additional step. Cells grown in a 96-well tissue culture plate were incubated with the MTT solution for approximately 4 hours. After this incubation period, a water-insoluble formazan dye formed. After solubilization, the formazan dye was quantitated using a scanning multi-well spectrophotometer (ELISA reader). […] The cells were seeded at 5,000-10,000 cells in each well of 96-well plate in 100 μL of fresh culture medium and were allowed to attach overnight. The stock solutions of the compounds were diluted in 100 μL cell culture medium to obtain eight concentrations of each test compound, ranging from 1 nM to 30 μM. […] All optical densities were measured at 490 nm using a Vmax Kinetic Microplate Reader (Molecular Devices). In most cases, the assay was performed in duplicate and the results were presented as a mean percent inhibition to the negative control±SE. The following formula was used to calculate the percent of inhibition: Inhibition (%)=(1-(ODo/OD)) ×100.
(§2) The compounds were tested against MS751, Z138 and 3T3 cells. The MS751 cell line is derived from a metastasis to lymph node of human cervix from a patient diagnosed with squameous cell carcinoma of the cervix. The Z138 cell line is a mature B-cell acute lymphoblastic leukemia cell line derived from a patient with chronic lumphocytic leukemia. 3T3 cells are standard fibroblast cells; they were originally isolated from Swiss mouse embryo tissue.

[2] = test system: Z138 cells; experiment: MTT cell proliferation assay, Z138; assay type: cell-based; conditions: read-out: MTT Assay IC50, Z138
Experimental: as §1, §2

[3] = test system: 3T3 cells; experiment: MTT cell proliferation assay, 3T3; assay type: cell-based, mouse; conditions: read-out: MTT Assay IC50, 3T3
Experimental: as §1, §2

[4] = Homo sapiens, MS751, MS751 cells, approximately 64-72 hours incubation
[5] = Homo sapiens, Z-138, Z138 cells, approximately 64-72 hours incubation
[6] = Mus musculus, NIH3T3, 3T3 cells, approximately 64-72 hours incubation
[7] = MS751 cells, approximately 64-72 hours incubation
[8] = Z138 cells, approximately 64-72 hours incubation
[9] = 3T3 cells, approximately 64-72 hours incubation
[10] = Homo sapiens, MS751, MS751 cells, eight concentrations 1 nM to 30 μM, incubation approximately 64-72 hours
[11] = Homo sapiens, Z-138, Z138 cells, eight concentrations 1 nM to 30 μM, incubation approximately 64-72 hours
[12] = Mus musculus, NIH3T3, 3T3 cells, eight concentrations 1 nM to 30 μM, incubation approximately 64-72 hours

## CC(=O)c1ccc(-c2cc(Cl)c3c(c2)CC(CNC(=O)/C=C/c2ccc(N)nc2)O3)s1 (single isomer, unassigned) [Compound 308, (E)-N-((5-(5-acetylthiophen-2-yl)-7-chloro-2,3-dihydrobenzofuran-2-yl)methyl)-3-(6-aminopyridin-3-yl)acrylamide]
[1]; [4]
  pIC50: 5.30 to 7.00
[2]; [5]
  pIC50: 5.30 to 7.00
[3]; [6]
  pIC50: 4.52 to 5.30

## CC(=O)c1ccc(-c2cc(Cl)c3c(c2)CC(CNC(=O)/C=C/c2ccc(N)nc2)O3)s1 (single isomer, unassigned) [Compound 309, (E)-N-((5-(5-acetylthiophen-2-yl)-7-chloro-2,3-dihydrobenzofuran-2-yl)methyl)-3-(6-aminopyridin-3-yl)acrylamide]
[1]; [7]
  pIC50: 5.30 to 7.00
[2]; [8]
  pIC50: > 7.00
[3]; [9]
  pIC50: 4.52 to 5.30

## CC(=O)c1ccc(-c2cc(Cl)c3c(c2)CC(CNC(=O)/C=C\c2cccnc2)O3)s1 (single isomer, unassigned) [Compound 312, (Z)-N-((5-(5-acetylthiophen-2-yl)-7-chloro-2,3-dihydrobenzofuran-2-yl)methyl)-3-(pyridin-3-yl)acrylamide]
[1]; [7]
  pIC50: 4.52 to 5.30
[2]; [5]
  pIC50: 5.30 to 7.00
[3]; [9]
  pIC50: 4.52 to 5.30

## CC(=O)c1ccc(-c2cc(Cl)c3c(c2)CC(CNC(=O)/C=C\c2cccnc2)O3)s1 (single isomer, unassigned) [Compound 313, (Z)-N-((5-(5-acetylthiophen-2-yl)-7-chloro-2,3-dihydrobenzofuran-2-yl)methyl)-3-(pyridin-3-yl)acrylamide]
[1]; [7]
  pIC50: 5.30 to 7.00
[2]; [8]
  pIC50: 5.30 to 7.00
[3]; [9]
  pIC50: < 4.52

## CC(=O)c1ccc(-c2cc(Cl)c3c(c2)CC(CNC(=O)/C=C/c2cccnn2)O3)s1 (single isomer, unassigned) [Compound 317, (E)-N-((5-(5-acetylthiophen-2-yl)-7-chloro-2,3-dihydrobenzofuran-2-yl)methyl)-3-(pyridazin-3-yl)acrylamide]
[1]; [4]
  pIC50: 5.30 to 7.00
[2]; [5]
  pIC50: 5.30 to 7.00
[3]; [6]
  pIC50: < 4.52

## CC(=O)c1ccc(-c2cc(Cl)c3c(c2)CC(CNC(=O)/C=C/c2cccnn2)O3)s1 (single isomer, unassigned) [Compound 318, (E)-N-((5-(5-acetylthiophen-2-yl)-7-chloro-2,3-dihydrobenzofuran-2-yl)methyl)-3-(pyridazin-3-yl)acrylamide]
[1]; [7]
  pIC50: 5.30 to 7.00
[2]; [8]
  pIC50: 5.30 to 7.00
[3]; [9]
  pIC50: < 4.52

## Cc1ccc(-c2cc(Cl)c3c(c2)CC(CNC(=O)/C=C/c2cccnc2)O3)cc1 (stereo not drawn) [Compound 15, (E)-N-((7-chloro-5-p-tolyl-2,3-dihydrobenzofuran-2-yl)methyl)-3-(pyridin-3-yl) acrylamide]
[1]; [10]
  pIC50: 5.30 to 7.00
[2]; [11]
  pIC50: 5.30 to 7.00
[3]; [12]
  pIC50: 4.52 to 5.30

## O=C(/C=C/c1cccnc1)NCC1Cc2cc(-c3ccccc3F)cc(Cl)c2O1 (stereo not drawn) [Compound 18, (E)-N-((7-chloro-5-(2-fluorophenyl)-2,3-dihydrobenzofuran-2-yl)methyl)-3-(pyridin-3-yl)acrylamide]
[1]; [10]
  pIC50: 5.30 to 7.00
[2]; [11]
  pIC50: 5.30 to 7.00
[3]; [12]
  pIC50: 4.52 to 5.30

## O=C(/C=C/c1cccnc1)NCC1Cc2cc(-c3cc(F)c(F)c(F)c3)cc(Cl)c2O1 (stereo not drawn) [Compound 21, (E)-N-((7-chloro-5-(3,4,5-trifluorophenyl)-2,3-dihydrobenzofuran-2-yl)methyl)-3-(pyridin-3-yl)acrylamide]
[1]; [10]
  pIC50: 5.30 to 7.00
[2]; [11]
  pIC50: 5.30 to 7.00
[3]; [12]
  pIC50: < 4.52

## CC(=O)c1ccc(-c2cc(Cl)c3c(c2)CC(CNC(=O)/C=C/c2ccncc2)O3)s1 (stereo not drawn) [Compound 24, (E)-N-((5-(5-acetylthiophen-2-yl)-7-chloro-2,3-dihydrobenzofuran-2-yl)methyl)-3-(pyridin-4-yl)acrylamide]
[1]; [10]
  pIC50: < 4.52
[2]; [11]
  pIC50: < 4.52
[3]; [12]
  pIC50: < 4.52

## CC(=O)c1ccc(-c2cc(Cl)c3c(c2)CC(CN)O3)s1 (stereo not drawn) [Compound 26]
[1]; [10]
  pIC50: 4.52 to 5.30
[2]; [11]
  pIC50: 4.52 to 5.30
[3]; [12]
  pIC50: 4.52 to 5.30

## CC(=O)c1ccc(-c2cc(Cl)c3c(c2)CC(CNC(=O)/C=C/c2cccnc2)O3)s1 (stereo not drawn) [Compound 27, (E)-N-((5-(5-acetylthiophen-2-yl)-7-chloro-2,3-dihydrobenzofuran-2-yl)methyl)-3-(pyridin-3-yl)acrylamide]
[1]; [10]
  pIC50: > 7.00
[2]; [11]
  pIC50: > 7.00
[3]; [12]
  pIC50: 5.30 to 7.00

## CC(=O)c1ccc(-c2cc(Cl)c3c(c2)CC(CNC(=O)/C=C/c2ccc[n+]([O-])c2)O3)s1 (stereo not drawn) [Compound 28, (E)-N-((5-(5-acetylthiophen-2-yl)-7-chloro-2,3-dihydrobenzofuran-2-yl)methyl)-3-(pyridine-1-oxide-3-yl)acrylamide]
[1]; [10]
  pIC50: < 4.52
[2]; [11]
  pIC50: < 4.52
[3]; [12]
  pIC50: < 4.52

## O=C(/C=C/c1cccnc1)NCC1Cc2cc(-c3ccc(C(=O)N4CCOCC4)cc3)cc(Cl)c2O1 (stereo not drawn) [Compound 29]
[1]; [10]
  pIC50: > 7.00
[2]; [11]
  pIC50: > 7.00
[3]; [12]
  pIC50: 5.30 to 7.00

## O=C(/C=C/c1cccnc1)NCC1Cc2cc(-c3cc(Cl)cc(Cl)c3)cc(Cl)c2O1 (stereo not drawn) [Compound 32, (E)-N-((7-chloro-5-(3,5-dichlorophenyl)-2,3-dihydrobenzofuran-2-yl)methyl)-3-(pyridin-3-yl)acrylamide]
[1]; [10]
  pIC50: 5.30 to 7.00
[2]; [11]
  pIC50: 5.30 to 7.00
[3]; [12]
  pIC50: < 4.52

## Cc1noc(C)c1-c1cc(Cl)c2c(c1)CC(CNC(=O)/C=C/c1cccnc1)O2 (stereo not drawn) [Compound 35, (E)-N-((7-chloro-5-(3,5-dimethylisoxazol-4-yl)-2,3-dihydrobenzofuran-2-yl)methyl)-3-(pyridin-3-yl)acrylamide]
[1]; [10]
  pIC50: 5.30 to 7.00
[2]; [11]
  pIC50: > 7.00
[3]; [12]
  pIC50: 5.30 to 7.00

## CC(=O)c1ccc(-c2cc(Cl)c3c(c2)CC(CNC(=O)/C=C/c2ccccc2)O3)s1 (stereo not drawn) [Compound 38, N-((5-(5-acetylthiophen-2-yl)-7-chloro-2,3-dihydrobenzofuran-2-yl)methyl)cinnamamide]
[1]; [10]
  pIC50: < 4.52
[2]; [11]
  pIC50: < 4.52
[3]; [12]
  pIC50: < 4.52

## COc1cccc(-c2cc(Cl)c3c(c2)CC(CNC(=O)/C=C/c2cccnc2)O3)c1F (stereo not drawn) [Compound 39, (E)-N-((7-chloro-5-(2-fluoro-3-methoxyphenyl)-2,3-dihydrobenzofuran-2-yl)methyl)-3-(pyridin-3-yl)acrylamide]
[1]; [10]
  pIC50: 5.30 to 7.00
[2]; [11]
  pIC50: 5.30 to 7.00
[3]; [12]
  pIC50: 5.30 to 7.00

## O=C(/C=C/c1cccnc1)NCC1Cc2cc(-c3ccco3)cc(Cl)c2O1 (stereo not drawn) [Compound 42, (E)-N-((7-chloro-5-(furan-2-yl)-2,3-dihydrobenzofuran-2-yl)methyl)-3-(pyridin-3-yl)acrylamide]
[1]; [10]
  pIC50: 5.30 to 7.00
[2]; [11]
  pIC50: 5.30 to 7.00
[3]; [12]
  pIC50: 4.52 to 5.30

## CC(=O)c1ccc(-c2cc(Cl)c3c(c2)CC(CNC(=O)/C=C/c2ccc(Cl)nc2)O3)s1 (stereo not drawn) [Compound 45, (E)-N-((5-(5-acetylthiophen-2-yl)-7-chloro-2,3-dihydrobenzofuran-2-yl)methyl)-3-(6-chloropyridin-3-yl)acrylamide]
[1]; [10]
  pIC50: < 4.52
[2]; [11]
  pIC50: < 4.52
[3]; [12]
  pIC50: < 4.52

## O=C(/C=C/c1cccnc1)NCC1Cc2cc(-c3cc(C(F)(F)F)cc(C(F)(F)F)c3)cc(Cl)c2O1 (stereo not drawn) [Compound 49, (E)-N-((5-(3,5-bis(trifluoromethyl)phenyl)-7-chloro-2,3-dihydrobenzofuran-2-yl)methyl)-3-(pyridin-3-yl)acrylamide]
[1]; [10]
  pIC50: 5.30 to 7.00
[2]; [11]
  pIC50: 5.30 to 7.00
[3]; [12]
  pIC50: 5.30 to 7.00

## CCOC(=O)c1cccc(-c2cc(Cl)c3c(c2)CC(CNC(=O)/C=C/c2cccnc2)O3)c1 (stereo not drawn) [Compound 52, (E)-ethyl 3-(7-chloro-2-((3-(pyridin-3-yl)acrylamido)methyl)-2,3-dihydrobenzofuran-5-yl)benzoate]
[1]; [10]
  pIC50: 5.30 to 7.00
[2]; [11]
  pIC50: 5.30 to 7.00
[3]; [12]
  pIC50: 5.30 to 7.00

— US9938258B2 (Karyopharm Therapeutics Inc., priority 2012, dated 2018)
